This is an account of results in patent US5637319A, “Controlled-release preparations” (priority 1995, dated 1997).

For series [1] the following is noted: after sulfasalazine to dogs; J. Pharm. Pharmacol., 1995 in press; cited from earlier work.
On the set-up of series [2]: species or system beagle dog. To be noted: dog, in vivo. As to the method: The peak time, Tmax, when the plasma 5-FU level reaches to its maximum level is used as a parameter for estimating the release time of drug in the GI tract after oral administration. […] According to the report of Anderson ([…]), for the dog, gastric emptying is 3-5 h, small intestine transit time is about 1 h and colonic transit time is 10-12 hr. On the other hand, Mizuta et al. (1989) reported that the small intestinal transit time in beagle dog is 3.0±1.4 h. Additionally, the transit of the test preparation was monitored by a direct examination of the dog intestine by abdominal incision. In this study, the delivery of these preparations to the ascending colon at 4 hr after administration was confirmed. In addition, to estimate the colon arrival time in the beagle dogs, sulfasalazine which is a pro-drug of 5ASA and is cleaved to sulfapyridine and 5ASA in the colon by azo-reductase of intestinal microflora was administered to the dogs. Sulfapyridine starts to appear in the blood circulation at 4 hr after administration and reaches to its maximum concentration at 10-12 hr (J. Pharm. Pharmacol., 1995 in press). Accordingly, colon arrival time has been estimated to be 4 hr in our beagle dogs.

The conditions of series [3]: dog, po.
Description: FIG. 18. Relationship between the thickness of EC layer of intestinal pressure controlled-release capsules and plasma fluorescein Tmax after oral administration to beagle dogs.
Series [4] is described as follows: Release study of cisplatin capsules with different pore number and amount of gel-forming polymer (FIGS. 1a-c, 2a-c). It counts as physicochemical. The text has this: The release rate of extremely hydrophilic low-molecular weight drug such as cisplatin from the sustained-release preparation is affected by the following three factors; (1) pore number made on the water-insoluble polymer, (2) pore size and (3) amount of gel-forming material inside the preparation. From the standpoint of mechanical operation of opening many uniform pores, the pore size was fixed to be 800 μm. Under the fixed pore size condition, the effects of the pore number was at first examined and the release patterns of cisplatin from the preparations are shown in FIGS. 1a, b and c. […] The release study data are summarized with respect to the effect of the amount of gel-forming polymer and the results are shown in FIGS. 2a, b and c.
The test was performed according to the procedure of the paddle method (JPXII). A dissolution media employed were the 1st solution (JPXII, pH 1.2) and the 2nd solution (JPXII, pH 6.8). Nine hundred ml of the dissolution medium was used at 37°±0.1° C. at 100rpm. Test capsule was put into a stainless sinker. After being enclosed in the sinker, the capsule was put into 900 ml of the 1st solution maintained at 37° C. The shaft was then placed in the fluid at 37° C. and the paddle was rotated at 100 rpm. To simulate the transit from gastric to intestinal pH, samples of 1st solution were replaced one hour later with the 2nd solution. The release profile of 5-FU was estimated by measuring the appearance of the drug by HPLC method. The cisplatin concentration was estimated by analyzing for platinum by atomic absorption spectrophotometry.

Series [5] is described as follows: Serum cisplatin concentration after oral administration to rabbits. It counts as in vivo, rabbit. To be noted: sustained-release preparation. Here is the method:
The effects of the pore number and the amount of gel-forming polymer on the release profiles of cisplatin was confirmed in the in vivo study after oral administration of the preparations to rabbits using a reference preparation, cisplatin solution, at 20 mg/kg. […] The absorption rate of cisplatin is so rapid that the serum peak level appears within 1 hr.
In case of preparations of which drug release mechanism is based on the intestinal pressure, drug release profiles of the preparations in Examples 4, 5, 6, 7 and 8 cannot be measured by in vitro release experiments. In addition, in the case of sustained-release preparations in Examples 9, 10 and 11, the long-acting efficiency must be confirmed in the in vivo animal study after oral administration. Therefore, in vivo pharmacokinetics study was performed using beagle dogs and rabbits. In the in vivo study, the preparations of the Examples except examples 6, 10 and 11 were administered to dogs and rabbits, respectively. […] These plasma and serum samples were immediately frozen in a deep freezer at -20° C. until analyzed.
Plasma 5ASA and 5-FU concentrations were measured by an HPLC method after extraction of the drug from the plasma sample. The serum cisplatin level was determined by analyzing for platinum by atomic absorption spectrophotometry. The plasma calcitonin level was determined by an ELISA method.

Series [6] deals with blood total leukocyte (BTL) count. Nature of the series: Pharmacodynamic study: blood total leukocyte (BTL) count after oral administration of rhG-CSF capsule to beagle dogs. It counts as in vivo, beagle dog. To be noted: 25 μg/kg oral, three dogs. Here is the method:
The test capsule, a preparation of Example 6, was orally administered to beagle dogs. At 30 min before drug administration, 0.6 ml of the blank blood sample was removed from the dog jugular vein. After administration, 0.1 ml of blood samples were collected at 10, 24, 36, 48, 60, 72 and 96 h. […] of the blood sample was used for blood total leukocyte (BTL) count. The BTL count was performed by microcell counter CC-180A (Sysmex, Toa Medical Electronics). The BTL count is expressed as a relative value, which is obtained by the respective control BTL count, namely the pre-dosing BTL count.

Regarding `Nc1ccc(S(=O)(=O)Nc2ccccn2)cc1` [Sulfapyridine, sulfapyridine], the “time at which sulfapyridine starts to appear in the blood circulation” value in series [1] was 4 h.
The molecule `O=C(O)c1cc(/N=N/c2ccc(S(=O)(=O)Nc3ccccn3)cc2)ccc1O` [sulfasalazine] had a colon arrival time in series [2] of 4 h.
As to `O=C1OC2(c3ccc(O)cc3Oc3cc(O)ccc32)c2ccccc21` [fluorescein], the “capsule thickness vs. in vivo Tmax” value in series [3] was “good corelationship between the capsule thickness and the in vivo Tmax”.
Regarding `N.N.[Cl][Pt][Cl]` [cisplatin], the “release rate of cisplatin, effect of pore number” value in series [4] (gel-forming polymer 100 mg) was “the pore number did not affect the release rate of cisplatin any more”; in series [4] (pore number 20 to 30, gel-forming polymer 25 mg and 50 mg), “the release rate of cisplatin increases”. In addition, the “effect of increase of the amount of gel-forming polymer on release” value in series [4] (pore number 20) is reported as “the effect of the increase of the amount of gel-forming polymer did not appear”. The “release rate of cisplatin, effect of amount of gel-forming polymer” value in series [4] (pore number 30 and 60, gel-forming polymer 25 mg to 50 mg) is listed as “the release rate of cisplatin decreases”. In addition, the “prolonged effect of pore number” value in series [4] (pore number 30 to 60, gel-forming polymer 25 mg and 50 mg) is given as “prolonged effect was not observed”. In addition, the “serum cisplatin levels, effect of pore number” value in series [5] (pore number 20 to 30, carbopol 25 mg (FIG. 4)) is listed as “significantly increases as the pore number increases from 20 to 30”. Besides, the “serum cisplatin level vs. time curves, effect of amount of gel-forming polymer” value in series [5] (pore number 30 (FIG. 5)) is recorded as “there is not a significant difference”.

B1: rhG-CSF: recombinant human granulocyte colony-stimulating factor, given orally as the capsule of Example 6 (protein, UniProt P09919 31-207, looked up)
Granulocyte …: TPLGPASSLPQSFLLKCLEQVRKIQGDGAALQEKLVSECATYKLCHPEELVLLGHSLGIPWAPLSSCPSQALQLAGCLSQLHSGLFLYQGLLQALEGISPELGPTLDTLQLDVADFATTIWQQMEELGMAPALQPTQGAMPAFASAFQRRAGGVLVASHLQSFLEVSYRVLRHLAQP
For B1, in series [6], the “BTL count relative to pre-dose level” value is 1.3 folds of pre-dose level and the “time at which BTL count starts to increase” value is given as 10 h. Also, the “BTL count return to the normal level” value in series [6] (end of the experiment) turned out to be 96 h.
